Calls of active or inactive are those of the source.
Tests used:
Lectin (Glycine max) [1] = biological target: Lectin (Glycine max) (UniProt P05046); assay: Binding affinity to soybean lectin assessed as compound-protein complex formation incubated for 30 mins followed by UV irradiation by SDS-PAGE based photoaffinity labeling
Lectin (Glycine max) [2] = biological target: Lectin (Glycine max) (UniProt P05046); assay: Binding affinity to soybean lectin assessed as compound-protein complex formation incubated for 30 mins followed by UV irradiation by SDS-PAGE based photoaffinity labeling in presence of lactose
[3] = biological target: T1, Lectin (Erythrina crista-galli) (UniProt P83410); assay: Binding affinity to Erythrina cristagalli lectin assessed as compound-protein complex formation incubated for 30 mins followed by UV irradiation by SDS-PAGE based photoaffinity labeling
T1 sequence (whole entry): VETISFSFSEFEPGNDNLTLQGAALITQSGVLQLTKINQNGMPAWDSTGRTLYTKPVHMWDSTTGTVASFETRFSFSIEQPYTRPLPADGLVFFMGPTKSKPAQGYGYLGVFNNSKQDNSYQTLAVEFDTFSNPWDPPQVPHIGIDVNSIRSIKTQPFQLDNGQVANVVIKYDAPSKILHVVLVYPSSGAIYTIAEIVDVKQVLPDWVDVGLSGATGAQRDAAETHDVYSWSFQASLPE

[4] = biological target: T1, Lectin (Erythrina crista-galli); assay: Binding affinity to Erythrina cristagalli lectin assessed as compound-protein complex formation incubated for 30 mins followed by UV irradiation by SDS-PAGE based photoaffinity labeling in presence of lactose

Measured: Activity

Sequence of Lectin (Glycine max) (P05046 whole entry): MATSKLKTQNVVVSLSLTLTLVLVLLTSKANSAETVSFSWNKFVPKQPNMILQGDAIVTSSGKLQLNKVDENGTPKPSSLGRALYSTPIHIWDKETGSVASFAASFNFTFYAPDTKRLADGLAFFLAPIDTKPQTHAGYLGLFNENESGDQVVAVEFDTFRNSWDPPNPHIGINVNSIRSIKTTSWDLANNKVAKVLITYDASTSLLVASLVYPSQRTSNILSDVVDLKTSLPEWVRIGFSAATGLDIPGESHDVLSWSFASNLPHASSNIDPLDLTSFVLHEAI

O=C(CCCC[C@@H]1SC[C@H]2NC(=O)N[C@@H]12)NCCOCCOCCOc1cc(C2(C(F)(F)F)N=N2)ccc1CO/N=C/[C@@H](O)[C@@H](O)[C@H](O[C@@H]1O[C@H](CO)[C@H](O)[C@H](O)[C@H]1O)[C@H](O)CO
active: all assays above

Source: ChEMBL document CHEMBL1641507, “The effect of structural differences in the reducing terminus of sugars on the binding affinity of carbohydrates and proteins analyzed using photoaffinity labeling” (Bioorg Med Chem, 2011)
